In patent US8192962B2, “Processes for detecting toxic substances” (Daikin Industries, Ltd., priority 2001, dated 2012):

Tested on: Energy system protein genes
Test: DNA chip mRNA expression in yeast, energy system protein genes (Table 4)
Format: cell-based, Saccharomyces cerevisiae S288C
Procedure: Yeast (Saccharomyces cerevisiae S288C (α SUC2mal mel gap2 CUP1)) were incubated at 25° C. on YPD medium (yeast extract 1%, polypepton 2%, glucose 2%). One of toxic chemical substances was added to the cells at logarithmic growth phase, and the cells were further incubated for two hours. Cells were cultured without any chemical substance in the same condition, and were used as control. Concentrations of the chemical substances were defined to inhibit the growth of the yeast but not lead to death.
After completion of the incubation, the culture was centrifuged to collect the cells. To the cells, sodium acetate buffer (50 mM sodium acetate, 10 mM EDTA, 1% SDS) was added, and the mixture was shaken at 65° C. for five minutes, followed by returning to room temperature, and obtaining the supernatant, of which the procedures were repeated two times. To the supernatant, ½ amount of a solution of phenol/chloroform was added, and the mixture was centrifuged to give a supernatant, which was added with an equal amount of chloroform, and the mixture was centrifuged to give a supernatant. To the supernatant, an equal amount of isopropanol containing 0.3 M sodium acetate was added, and the mixture was allowed to stand at room temperature for 30 minutes, after which the mixture was centrifuged to give a sediment of the whole RNAs. Seventy % ethanol was added to the sediment, and the mixture was again centrifuged to give a sediment, which was then dried and dissolved in water. mRNA was isolated from the whole RNAs as followings. In view of the fact that a poly A chain is attached to the 3′ terminus of mRNA, a polynucleotide having a poly T structure which was immobilized on the surface of latex beads was used to trap the mRNA, and then the mRNA was washed and eluted with spine column (Oligotex-dT30<Super>mRNA Purification Kit, Takara). Reverse transcription of the mRNA was conducted with a reverse transcriptase (Super Script II Reverse Transcriptase; catalogue No. 18064-014, GibcoBRL) using fluorescence-labeled nucleotides to give cDNAs that were introduced with Cy3-dUTP or Cy5-dUTP during the reverse transcription.
The labeled cDNAs were dissolved in TE buffer (10mM Tris-HCl/1 mM EDTA, pH8.0), and the solution was dropped on the DNA chip containing the whole genes of yeast (DNA Chip Research Inc. Japan) so that the cDNAs were hybridized on the DNA chip at 65° C. for over 12 hours. The fluoresces intensity of the DNA chip was read with a scanner, and the ratio relative to the fluorescence intensity resulting from the absence of chemical substance was estimated as the following, which is shown in Tables 1 to 9: […]

## [Cl][Hg][Cl] [(3), HgCl2]
Yeast gene YJR048W
  The level of expressed mRNA in the presence of chemical substance/The level of expressed mRNA in the absence of chemical substance: 2.2
Yeast gene YJR121W, cells incubated two hours with the chemical substance
  The level of expressed mRNA in the presence of chemical substance/The level of expressed mRNA in the absence of chemical substance: 3.3
Yeast gene YJR155W
  The level of expressed mRNA in the presence of chemical substance/The level of expressed mRNA in the absence of chemical substance: 1.4
Yeast gene YKL016C, cells incubated two hours with the chemical substance
  The level of expressed mRNA in the presence of chemical substance/The level of expressed mRNA in the absence of chemical substance: 0.7
Yeast gene YKL060C, cells incubated two hours with the chemical substance
  The level of expressed mRNA in the presence of chemical substance/The level of expressed mRNA in the absence of chemical substance: 2.5
Yeast gene YKL141W, cells incubated two hours with the chemical substance
  The level of expressed mRNA in the presence of chemical substance/The level of expressed mRNA in the absence of chemical substance: 4.7
Yeast gene YKL148C, cells incubated two hours with the chemical substance
  The level of expressed mRNA in the presence of chemical substance/The level of expressed mRNA in the absence of chemical substance: 3.7
Yeast gene YKR009C, cells incubated two hours with the chemical substance
  The level of expressed mRNA in the presence of chemical substance/The level of expressed mRNA in the absence of chemical substance: 1.5
Yeast gene YKR058W, cells incubated two hours with the chemical substance, 25° C., YPD medium
  The level of expressed mRNA in the presence of chemical substance/The level of expressed mRNA in the absence of chemical substance: 1.4
Yeast gene YKR097W
  The level of expressed mRNA in the presence of chemical substance/The level of expressed mRNA in the absence of chemical substance: 1.3
Yeast gene YLL041C, cells incubated two hours with the chemical substance
  The level of expressed mRNA in the presence of chemical substance/The level of expressed mRNA in the absence of chemical substance: 4.6
Yeast gene YLR038C, cells incubated two hours with the chemical substance
  The level of expressed mRNA in the presence of chemical substance/The level of expressed mRNA in the absence of chemical substance: 0.6
Yeast gene YLR044C, cells incubated two hours with the chemical substance
  The level of expressed mRNA in the presence of chemical substance/The level of expressed mRNA in the absence of chemical substance: 2.2
Yeast gene YLR134W, cells incubated two hours with the chemical substance
  The level of expressed mRNA in the presence of chemical substance/The level of expressed mRNA in the absence of chemical substance: 2.3
Yeast gene YLR258W, cells incubated two hours with the chemical substance
  The level of expressed mRNA in the presence of chemical substance/The level of expressed mRNA in the absence of chemical substance: 4.2
Yeast gene YLR284C, cells incubated two hours with the chemical substance
  The level of expressed mRNA in the presence of chemical substance/The level of expressed mRNA in the absence of chemical substance: 3.8
Yeast gene YLR295C, cells incubated two hours with the chemical substance, 25° C., YPD medium
  The level of expressed mRNA in the presence of chemical substance/The level of expressed mRNA in the absence of chemical substance: 1.1
Yeast gene YLR304C, cells incubated two hours with the chemical substance
  The level of expressed mRNA in the presence of chemical substance/The level of expressed mRNA in the absence of chemical substance: 5.0
Yeast gene YLR345W
  The level of expressed mRNA in the presence of chemical substance/The level of expressed mRNA in the absence of chemical substance: 1.4
Yeast gene YLR354C, cells incubated two hours with the chemical substance
  The level of expressed mRNA in the presence of chemical substance/The level of expressed mRNA in the absence of chemical substance: 2.3
Yeast gene YLR377C, cells incubated two hours with the chemical substance
  The level of expressed mRNA in the presence of chemical substance/The level of expressed mRNA in the absence of chemical substance: 1.8
Yeast gene YLR395C, cells incubated two hours with the chemical substance
  The level of expressed mRNA in the presence of chemical substance/The level of expressed mRNA in the absence of chemical substance: 2.2
Yeast gene YML087C
  The level of expressed mRNA in the presence of chemical substance/The level of expressed mRNA in the absence of chemical substance: 0.8
Yeast gene YML120C, cells incubated two hours with the chemical substance
  The level of expressed mRNA in the presence of chemical substance/The level of expressed mRNA in the absence of chemical substance: 1.9
Yeast gene YML129C, cells incubated two hours with the chemical substance
  The level of expressed mRNA in the presence of chemical substance/The level of expressed mRNA in the absence of chemical substance: 0.9
Yeast gene YMR073C, cells incubated two hours with the chemical substance
  The level of expressed mRNA in the presence of chemical substance/The level of expressed mRNA in the absence of chemical substance: 1.2
Yeast gene YMR118C
  The level of expressed mRNA in the presence of chemical substance/The level of expressed mRNA in the absence of chemical substance: 1.4
Yeast gene YMR205C, cells incubated two hours with the chemical substance
  The level of expressed mRNA in the presence of chemical substance/The level of expressed mRNA in the absence of chemical substance: 2.3
Yeast gene YMR261C, cells incubated two hours with the chemical substance
  The level of expressed mRNA in the presence of chemical substance/The level of expressed mRNA in the absence of chemical substance: 3.6
Yeast gene YMR267W, cells incubated two hours with the chemical substance, 25° C., YPD medium
  The level of expressed mRNA in the presence of chemical substance/The level of expressed mRNA in the absence of chemical substance: 0.7
Yeast gene YMR323W, cells incubated two hours with the chemical substance
  The level of expressed mRNA in the presence of chemical substance/The level of expressed mRNA in the absence of chemical substance: 2.9
Yeast gene YNL071W
  The level of expressed mRNA in the presence of chemical substance/The level of expressed mRNA in the absence of chemical substance: 1.7
Yeast gene YNL202W, cells incubated two hours with the chemical substance
  The level of expressed mRNA in the presence of chemical substance/The level of expressed mRNA in the absence of chemical substance: 1.2
Yeast gene YNL241C
  The level of expressed mRNA in the presence of chemical substance/The level of expressed mRNA in the absence of chemical substance: 4.3
Yeast gene YNL331C
  The level of expressed mRNA in the presence of chemical substance/The level of expressed mRNA in the absence of chemical substance: 1.3
Yeast gene YOL086C, cells incubated two hours with the chemical substance
  The level of expressed mRNA in the presence of chemical substance/The level of expressed mRNA in the absence of chemical substance: 2.2
Yeast gene YOL165C
  The level of expressed mRNA in the presence of chemical substance/The level of expressed mRNA in the absence of chemical substance: 1.8
Yeast gene YOR142W, cells incubated two hours with the chemical substance
  The level of expressed mRNA in the presence of chemical substance/The level of expressed mRNA in the absence of chemical substance: 3.4
Yeast gene YOR178C, cells incubated two hours with the chemical substance
  The level of expressed mRNA in the presence of chemical substance/The level of expressed mRNA in the absence of chemical substance: 4.8
Yeast gene YOR388C, cells incubated two hours with the chemical substance
  The level of expressed mRNA in the presence of chemical substance/The level of expressed mRNA in the absence of chemical substance: 1.3
Yeast gene YPL031C, cells incubated two hours with the chemical substance
  The level of expressed mRNA in the presence of chemical substance/The level of expressed mRNA in the absence of chemical substance: 1.4
Yeast gene YPL061W, cells incubated two hours with the chemical substance
  The level of expressed mRNA in the presence of chemical substance/The level of expressed mRNA in the absence of chemical substance: 5.0
Yeast gene YPL088W
  The level of expressed mRNA in the presence of chemical substance/The level of expressed mRNA in the absence of chemical substance: 0.6
Yeast gene YPL171C
  The level of expressed mRNA in the presence of chemical substance/The level of expressed mRNA in the absence of chemical substance: 3.5
Yeast gene YPL240C
  The level of expressed mRNA in the presence of chemical substance/The level of expressed mRNA in the absence of chemical substance: 2.4
Yeast gene YPL262W, cells incubated two hours with the chemical substance
  The level of expressed mRNA in the presence of chemical substance/The level of expressed mRNA in the absence of chemical substance: 3.8
Yeast gene YPL275W, cells incubated two hours with the chemical substance
  The level of expressed mRNA in the presence of chemical substance/The level of expressed mRNA in the absence of chemical substance: 1.3
Yeast gene YPL276W, cells incubated two hours with the chemical substance
  The level of expressed mRNA in the presence of chemical substance/The level of expressed mRNA in the absence of chemical substance: 1.6
Yeast gene YPR048W, cells incubated two hours with the chemical substance
  The level of expressed mRNA in the presence of chemical substance/The level of expressed mRNA in the absence of chemical substance: 0.9
Yeast gene YPR184W, cells incubated two hours with the chemical substance
  The level of expressed mRNA in the presence of chemical substance/The level of expressed mRNA in the absence of chemical substance: 5.7
